This test relates to recombinant NL4-3 virus (Renilla luciferase) in MT-2 cells. Kind of test: HIV cell culture assay (antiviral activity, luciferase readout in infected MT-2 cells). It is filed as cell-based. In a few lines: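 EC50 derived via median-effect equation from luciferase activity in MT-2 cells after 4–5 day infection, compound serially diluted. Virus: recombinant NL4-3 with Renilla luciferase replacing part of nef, made in 293T cells.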

Setting [1] is: Renilla, NL43, read-out: Activity, antiviral activity class, recombinant NL4-3 Renilla luciferase virus in MT-2 cells.
[2] abbreviates: recombinant NL4-3 Renilla luciferase virus in MT-2 cells, read-out: EC50.
Where [3] appears, read: Renilla, NL43, recombinant NL4-3 Renilla luciferase virus in MT-2 cells.

Where two headings read alike, the source gives them in different places. Where only a bound is given, the exact number is not on record here.

As to `Cc1ccccc1S(=O)(=O)NC(=O)N[C@@H](CCc1ccccc1)C(=O)N(C)c1ccc2c(c1)OCO2` [Example 209, (S)—N-(benzo[d][1,3]dioxol-5-yl)-N-methyl-4-phenyl-2-(3-(o-tolylsulfonyl)ureido)butanamide], the EC50 under setting [1] was 10000 to 100000 nM.
With “(S)—N-((1-(3,3-dimethylazetidin-1-yl)-1-oxo-3-phenylpropan-2-yl)carbamoyl)-2-methylbenzenesulfonamide [Example 191]”, the EC50 under setting [2] is above 100000 nM.
For the molecule `CN(C(=O)[C@H](Cc1ccccc1)NC(=O)N(C)S(=O)(=O)c1ccccc1Br)c1ccc2c(c1)OCO2` [Example 47, (S)—N-(benzo[d][1,3]dioxol-5-yl)-2-(3-((2-bromophenyl)sulfonyl)-3-methylureido)-N-methyl-3-phenylpropanamid], under setting [1], the EC50 is 1000 to 10000 nM.
The same measure, in the same setting: next, `CCN(C(=O)[C@H](Cc1ccccc1)NC(=O)NS(=O)(=O)c1ccccc1F)c1ccc(OC)cc1` [Example 117, (S)—N-ethyl-2-(3-((2-fluorophenyl)sulfonyl)ureido)-N-(4-methoxyphenyl)-3-phenylpropanamide]: below 100 nM; `CC(C)c1ccccc1S(=O)(=O)NC(=O)N[C@@H](Cc1ccccc1)C(=O)N(C)c1ccc2c(c1)OCO2` [Example 135, (S)—N-(benzo[d][1,3]dioxol-5-yl)-2-(3-((2-isopropylphenyl)sulfonyl)ureido)-N-methyl-3-phenylpropanamide]: 100 to 1000 nM.
On to “(S)-2-(3-([1,1′-biphenyl]-2-ylsulfonyl)ureido)-N-(benzo[d][1,3]dioxol-5-yl)-N-methyl-3-phenylpropanamide [Example 48]”, for which, under “antiviral activity class, recombinant NL4-3 Renilla luciferase virus in MT-2 cells, read-out: Activity”, the EC50 fell in the range of 1000 to 10000 nM.
Regarding `Cc1ccccc1S(=O)(=O)NC(=O)N[C@@H](Cc1ccccc1F)C(=O)N(C)c1ccc2c(c1)OCO2` [Example 70, (S)—N-(benzo[d][1,3]dioxol-5-yl)-3-(2-fluorophenyl)-N-methyl-2-(3-(o-tolylsulfonyl)ureido)propanamide], the EC50 under setting [1] fell in the range of 100 to 1000 nM.
Regarding `Cc1ccc2cc(N(C)C(=O)[C@H](Cc3ccccc3)NC(=O)NS(=O)(=O)c3ccccc3C)ccc2n1` [Example CA-72, (S)—N-methyl-N-(2-methylquinolin-6-yl)-3-phenyl-2-(3-(o-tolylsulfonyl)ureido)propanamide], the EC50 reads like this: under setting [1], below 100 nM; under setting [3], 30 nM.
Turning to `COC(=O)c1ccccc1S(=O)(=O)NC(=O)N[C@@H](Cc1ccccc1)C(=O)N(C)c1ccc2c(c1)OCO2` [Example 23, (S)-methyl 2-(N-((1-(benzo[d][1,3]dioxol-5-yl(methyl)amino)-1-oxo-3-phenylpropan-2-yl)carbamoyl)sulfamoyl)benzoate], the EC50 under setting [1] fell in the range of 1000 to 10000 nM.
Still for that read-out and setting: the figure for `COc1cccc(C[C@H](NC(=O)NS(=O)(=O)c2ccccc2C)C(=O)N(C)c2ccc3c(c2)OCO3)c1` [Example 78, (S)—N-(benzo[d][1,3]dioxol-5-yl)-3-(3-methoxyphenyl)-N-methyl-2-(3-(o-tolylsulfonyl)ureido)propanamide] is 100 to 1000 nM.
As for `Cc1ccccc1S(=O)(=O)NC(=O)N[C@@H](Cc1ccc(OCc2ccccc2)cc1)C(=O)N(C)c1ccc2c(c1)OCO2` [Example 68, (S)—N-(benzo[d][1,3]dioxol-5-yl)-3-(4-(benzyloxy)phenyl)-N-methyl-2-(3-(o-tolylsulfonyl)ureido)propanamide], the EC50 is, setting by setting: under setting [1], 10000 to 100000 nM; under setting [3], 16000 nM.
In the same order, the values of `Cc1ccccc1S(=O)(=O)NC(=O)N[C@@H](Cc1ccccc1)C(=O)N(C)c1ccc2cccnc2c1` [Example CA-98, (S)—N-methyl-3-phenyl-N-(quinolin-7-yl)-2-(3-(o-tolylsulfonyl)ureido)propanamide] are 100 to 1000 nM and 120 nM.
On to `COc1ccc(N(Cc2ccccc2)C(=O)[C@H](Cc2ccccc2)NC(=O)NS(=O)(=O)c2ccccc2C)cc1` [Example ZY-3, (S)—N-benzyl-N-(4-methoxyphenyl)-3-phenyl-2-(3-(o-tolylsulfonyl)ureido)propanamide], for which the EC50 runs as follows: under setting [1], 1000 to 10000 nM; under setting [3], 3610 nM.
In the same order, the values of `C=Cc1cccc(S(=O)(=O)NC(=O)N[C@@H](Cc2ccccc2)C(=O)N(CC)c2ccc(OC)cc2)c1` [Example 138, (S)—N-ethyl-N-(4-methoxyphenyl)-3-phenyl-2-(3-((3-vinylphenyl)sulfonyl)ureido)propanamide] are below 100 nM and 50 nM.
For `CCN(C(=O)[C@H](Cc1ccccc1)NC(=O)NS(=O)(=O)c1ccccc1Br)c1ccc(OC)cc1` [Example 201, (S)-2-(3-((2-bromophenyl)sulfonyl)ureido)-N-ethyl-N-(4-methoxyphenyl)-3-phenylpropanamide], the EC50 under setting [1] is below 100 nM.
Same read-out and setting: next, `COc1ccc(N(C)C(=O)[C@H](Cc2ccccc2)NC(=O)NS(=O)(=O)c2ccccc2C)cc1` [Example 167, (S)—N-(4-methoxyphenyl)-N-methyl-3-phenyl-2-(3-(o-tolylsulfonyl)ureido)propanamide]: below 100 nM.
Still for that read-out and setting: the figure for `Cc1ccc(S(=O)(=O)NC(=O)N[C@@H](Cc2ccccc2)C(=O)N(C)c2ccc3c(c2)OCO3)s1` [Example 27, (S)—N-(benzo[d][1,3]dioxol-5-yl)-N-methyl-2-(3-((5-methylthiophen-2-yl)sulfonyl)ureido)-3-phenylpropanamide] is 100 to 1000 nM; for `Cc1ccccc1S(=O)(=O)NC(=O)N[C@@H](Cc1ccc(O)cc1)C(=O)N(C)c1ccc2c(c1)OCO2` [Example 82, (S)—N-(benzo[d][1,3]dioxol-5-yl)-3-(4-hydroxyphenyl)-N-methyl-2-(3-(o-tolylsulfonyl)ureido)propanamide] it is 1000 to 10000 nM; for `CCN(C(=O)[C@H](Cc1ccccc1)NC(=O)NS(=O)(=O)c1ccccc1C)c1ccc(Cl)cc1` [Example 181, (S)—N-(4-chlorophenyl)-N-ethyl-3-phenyl-2-(3-(o-tolylsulfonyl)ureido)propanamide] it is 100 to 1000 nM.
Same read-out and setting: the figure for `Cc1ccccc1S(=O)(=O)NC(=O)N[C@@H](Cc1cc(F)cc(F)c1)C(=O)N(C)c1ccc(OC(F)(F)F)cc1` [Example CA-108, (S)-3-(3,5-difluorophenyl)-N-methyl-2-(3-(o-tolylsulfonyl)ureido)-N-(4-(trifluoromethoxy)phenyl)propanamide] is 100 to 1000 nM; for `Cc1ccccc1S(=O)(=O)NC(=O)N[C@@H](Cc1ccccc1Br)C(=O)N(C)c1ccc2c(c1)OCO2` [Example 76, (S)—N-(benzo[d][1,3]dioxol-5-yl)-3-(2-bromophenyl)-N-methyl-2-(3-(o-tolylsulfonyl)ureido)propanamide] it is 1000 to 10000 nM; for `Cc1ccccc1S(=O)(=O)NC(=O)N[C@@H](Cc1ccccc1Cl)C(=O)N(C)c1ccc2c(c1)OCO2` [Example 54, (S)—N-(benzo[d][1,3]dioxol-5-yl)-3-(2-chlorophenyl)-N-methyl-2-(3-(o-tolylsulfonyl)ureido)propanamide] it is 100 to 1000 nM.
As to `CN(C(=O)[C@H](Cc1ccccc1)NC(=O)NS(=O)(=O)c1ccccc1-c1ccc(F)nc1)c1ccc2c(c1)OCO2` [Example 148, (S)—N-(benzo[d][1,3]dioxol-5-yl)-2-(3-((2-(6-fluoropyridin-3-yl)phenyl)sulfonyl)ureido)-N-methyl-3-phenylpropanamide], under setting [1], the EC50 lay within 1000 to 10000 nM.
Still for that read-out and setting: the figure for `COc1ccc(N(C)C(=O)[C@H](Cc2ccncc2)NC(=O)NS(=O)(=O)c2ccccc2C)cc1` [Example 199, (S)—N-(4-methoxyphenyl)-N-methyl-3-(pyridin-4-yl)-2-(3-(o-tolylsulfonyl)ureido)propanamide] is 10000 to 100000 nM.
In the case of `CN(C(=O)[C@H](Cc1ccccc1)NC(=O)NS(=O)(=O)c1cc(Cl)sc1Cl)c1ccc2c(c1)OCO2` [Example 32, (S)—N-(benzo[d][1,3]dioxol-5-yl)-2-(3-((2,5-dichlorothiophen-3-yl)sulfonyl)ureido)-N-methyl-3-phenylpropanamide], the EC50 runs as follows: under setting [1], below 100 nM; under setting [3], 70 nM.
As to `Cc1nc2cc(N(C)C(=O)[C@H](Cc3ccccc3)NC(=O)NS(=O)(=O)c3ccccc3C)ccc2s1` [Example CA-87, (S)—N-methyl-N-(2-methylbenzo[d]thiazol-5-yl)-3-phenyl-2-(3-(o-tolylsulfonyl)ureido)propanamide], under setting [1], the EC50 fell in the range of 100 to 1000 nM.
`CC(=O)Nc1ccc(C[C@H](NC(=O)NS(=O)(=O)c2ccccc2C)C(=O)N(C)c2ccc3c(c2)OCO3)cc1` [Example 73, (S)-3-(4-acetamidophenyl)-N-(benzo[d][1,3]dioxol-5-yl)-N-methyl-2-(3-(o-tolylsulfonyl)ureido)propanamide]: the EC50 under setting [3] is above 100000 nM.
`CN(C(=O)[C@H](Cc1ccccc1)NC(=O)NS(=O)(=O)Cc1ccccc1Cl)c1ccc2c(c1)OCO2` [Example 101, (S)—N-(benzo[d][1,3]dioxol-5-yl)-2-(3-((2-chlorobenzyl)sulfonyl)ureido)-N-methyl-3-phenylpropanamide]: the EC50 under setting [1] lay in the range of 100 to 1000 nM.
Regarding “(S)—N-((1-(3-methoxyazetidin-1-yl)-1-oxo-3-phenylpropan-2-yl)carbamoyl)-2-methylbenzenesulfonamide [Example 190]”, under setting [2], the EC50 is above 100000 nM.
With `Cc1ccccc1S(=O)(=O)NC(=O)N[C@@H](Cc1ccccc1)C(=O)N(C)Cc1ccccn1` [Example 180, (S)—N-methyl-3-phenyl-N-(pyridin-2-ylmethyl)-2-(3-(o-tolylsulfonyl)ureido)propanamide], under setting [1], the EC50 fell in the range of 1000 to 10000 nM.
On the same count and under the same terms, the figure for `Cc1ccccc1S(=O)(=O)NC(=O)N[C@@H](Cc1cc(F)cc(F)c1)C(=O)N(C)c1ccc2c(c1)OCO2` [Example 67, (S)—N-(benzo[d][1,3]dioxol-5-yl)-3-(3,5-difluorophenyl)-N-methyl-2-(3-(o-tolylsulfonyl)ureido)propanamide] is 100 to 1000 nM.

The values above are taken from US10035760B2, “Inhibitors of human immunodeficiency virus replication” (priority 2013, dated 2018).
